# Data as given in ChEMBL document CHEMBL3885861, “Open TG-GATES”.
# Species: Rattus norvegicus
# Experiment: Open TG-GATES - Regimen: Daily Repeat
# Assay type: toxicity, organism-based, Sprague-Dawley
# Parameters: regimen Daily Repeat, gender Male, age 6 weeks
# Details: in vivo, iv, 0 mg/kg, route intravenous injection, dose level Control; for APTT / Bas / Eos / Fbg / Hb / Ht / Lym / MCH / MCHC / MCV / Mono / Neu / PT / Plat / RBC / Ret / WBC: tissue Blood; for KIDNEY_L / KIDNEY_R / KIDNEY_TOTAL: tissue Kidney; for LIVER: tissue Liver; for ALP / ALT / AST / BUN / CRE / Ca / Cl / DBIL / GLC / IP / K / LDH / Na / PL / RALB / TBIL / TC / TG / TP / gamma-GTP: tissue Plasma
smiles,measurement,setting,value
CC(=O)OCC1=C(C(=O)O)N2C(=O)[C@@H](NC(=O)Cc3cccs3)[C@H]2SC1 [CEPHALOTHIN],TERMINAL_BW,"72 h, time 3 day",230.4 g
same,APTT,"72 h, time 3 day",21.2 s
same,Bas,"72 h, time 3 day",0%
same,Eos,"72 h, time 3 day",0.8%
same,Fbg,"72 h, time 3 day",292.4 mg/dL
same,Hb,"72 h, time 3 day",13.4 g/dL
same,Ht,"72 h, time 3 day",38.5%
same,Lym,"72 h, time 3 day",82%
same,MCH,"72 h, time 3 day",21.2 pg
same,MCHC,"72 h, time 3 day",34.9%
same,MCV,"72 h, time 3 day",60.8 fL
same,Mono,"72 h, time 3 day",3.4%
same,Neu,"72 h, time 3 day",13%
same,PT,"72 h, time 3 day",16.1 s
same,Plat,"72 h, time 3 day",120.3 x10_4/uL
same,RBC,"72 h, time 3 day",633 x10_4/ul
same,Ret,"72 h, time 3 day",6.8%
same,WBC,"72 h, time 3 day",100.4 x10_2/uL
same,KIDNEY_L,"72 h, time 3 day",1 g
same,KIDNEY_R,"72 h, time 3 day",1 g
same,KIDNEY_TOTAL,"72 h, time 3 day",2 g
same,LIVER,"72 h, time 3 day",10.5 g
same,ALP,"72 h, time 3 day",1655.6 IU/L
same,ALT,"72 h, time 3 day",38.8 IU/L
same,AST,"72 h, time 3 day",69.2 IU/L
same,BUN,"72 h, time 3 day",18 mg/dL
same,CRE,"72 h, time 3 day",0.2 mg/dL
same,Ca,"72 h, time 3 day",10.8 mg/dL
same,Cl,"72 h, time 3 day",105.4 meq/L
same,DBIL,"72 h, time 3 day",0 mg/dL
same,GLC,"72 h, time 3 day",185.8 mg/dL
same,IP,"72 h, time 3 day",6.9 mg/dL
same,K,"72 h, time 3 day",4.6 meq/L
same,LDH,"72 h, time 3 day",153.6 IU/L
same,Na,"72 h, time 3 day",140.8 meq/L
same,PL,"72 h, time 3 day",147.2 mg/dL
same,RALB,"72 h, time 3 day",3 g/dL
same,TBIL,"72 h, time 3 day",0.002 mg/dL
same,TC,"72 h, time 3 day",79.2 mg/dL
same,TG,"72 h, time 3 day",108.4 mg/dL
same,TP,"72 h, time 3 day",5.3 g/dL
same,gamma-GTP,"72 h, time 3 day",1.6 IU/L
same,TERMINAL_BW,"[…], time 7 day",261.3 g
same,TERMINAL_BW,"[…], time 14 day",318.6 g
same,TERMINAL_BW,"[…], time 28 day",376.6 g
same,APTT,"[…], time 7 day",22.6 s
same,Bas,"[…], time 7 day",0%
same,Eos,"[…], time 7 day",0.8%
same,Fbg,"[…], time 7 day",303 mg/dL
same,Hb,"[…], time 7 day",13.2 g/dL
same,Ht,"[…], time 7 day",37.9%
same,Lym,"[…], time 7 day",78.6%
same,MCH,"[…], time 7 day",20.5 pg
same,MCHC,"[…], time 7 day",34.8%
same,MCV,"[…], time 7 day",59 fL
same,Mono,"[…], time 7 day",2.2%
same,Neu,"[…], time 7 day",17.8%
same,PT,"[…], time 7 day",17 s
same,Plat,"[…], time 7 day",139.9 x10_4/uL
same,RBC,"[…], time 7 day",642.6 x10_4/ul
same,Ret,"[…], time 7 day",5.7%
same,WBC,"[…], time 7 day",107.7 x10_2/uL
same,APTT,"[…], time 14 day",23.5 s
same,Bas,"[…], time 14 day",0%
same,Eos,"[…], time 14 day",1%
same,Fbg,"[…], time 14 day",268.2 mg/dL
same,Hb,"[…], time 14 day",14.2 g/dL
same,Ht,"[…], time 14 day",39.3%
same,Lym,"[…], time 14 day",76.4%
same,MCH,"[…], time 14 day",20.3 pg
same,MCHC,"[…], time 14 day",36.1%
same,MCV,"[…], time 14 day",56.2 fL
same,Mono,"[…], time 14 day",3%
same,Neu,"[…], time 14 day",18.8%
same,PT,"[…], time 14 day",16.1 s
same,Plat,"[…], time 14 day",126.1 x10_4/uL
same,RBC,"[…], time 14 day",698.6 x10_4/ul
same,Ret,"[…], time 14 day",4.8%
same,WBC,"[…], time 14 day",110.4 x10_2/uL
same,APTT,"[…], time 28 day",26.5 s
same,Bas,"[…], time 28 day",0%
same,Eos,"[…], time 28 day",1%
same,Fbg,"[…], time 28 day",291.4 mg/dL
same,Hb,"[…], time 28 day",15.6 g/dL
same,Ht,"[…], time 28 day",42.3%
same,Lym,"[…], time 28 day",83.6%
same,MCH,"[…], time 28 day",19.8 pg
same,MCHC,"[…], time 28 day",36.9%
same,MCV,"[…], time 28 day",53.6 fL
same,Mono,"[…], time 28 day",2.6%
same,Neu,"[…], time 28 day",12%
same,PT,"[…], time 28 day",16.3 s
same,Plat,"[…], time 28 day",108 x10_4/uL
same,RBC,"[…], time 28 day",789.2 x10_4/ul
same,Ret,"[…], time 28 day",2.4%
same,WBC,"[…], time 28 day",108.4 x10_2/uL
same,KIDNEY_L,"[…], time 7 day",1 g
same,KIDNEY_R,"[…], time 7 day",1.1 g
same,KIDNEY_TOTAL,"[…], time 7 day",2.1 g
same,KIDNEY_L,"[…], time 14 day",1.2 g
same,KIDNEY_R,"[…], time 14 day",1.3 g
same,KIDNEY_TOTAL,"[…], time 14 day",2.5 g
same,KIDNEY_L,"[…], time 28 day",1.3 g
same,KIDNEY_R,"[…], time 28 day",1.3 g
same,KIDNEY_TOTAL,"[…], time 28 day",2.5 g
same,LIVER,"[…], time 7 day",11.4 g
same,LIVER,"[…], time 14 day",12.9 g
same,LIVER,"[…], time 28 day",14.2 g
same,ALP,"[…], time 7 day",1413.8 IU/L
same,ALT,"[…], time 7 day",35 IU/L
same,AST,"[…], time 7 day",71.2 IU/L
same,BUN,"[…], time 7 day",18.6 mg/dL
same,CRE,"[…], time 7 day",0.2 mg/dL
same,Ca,"[…], time 7 day",10.7 mg/dL
same,Cl,"[…], time 7 day",107 meq/L
same,DBIL,"[…], time 7 day",0 mg/dL
same,GLC,"[…], time 7 day",182 mg/dL
same,IP,"[…], time 7 day",7 mg/dL
same,K,"[…], time 7 day",4.4 meq/L
same,LDH,"[…], time 7 day",177.6 IU/L
same,Na,"[…], time 7 day",142 meq/L
same,PL,"[…], time 7 day",121.8 mg/dL
same,RALB,"[…], time 7 day",2.9 g/dL
same,TBIL,"[…], time 7 day",0.004 mg/dL
same,TC,"[…], time 7 day",64.8 mg/dL
same,TG,"[…], time 7 day",87.6 mg/dL
same,TP,"[…], time 7 day",5.3 g/dL
same,gamma-GTP,"[…], time 7 day",1.8 IU/L
same,ALP,"[…], time 14 day",1425 IU/L
same,ALT,"[…], time 14 day",34.4 IU/L
same,AST,"[…], time 14 day",63.4 IU/L
same,BUN,"[…], time 14 day",16.8 mg/dL
same,CRE,"[…], time 14 day",0.2 mg/dL
same,Ca,"[…], time 14 day",10.9 mg/dL
same,Cl,"[…], time 14 day",104.4 meq/L
same,DBIL,"[…], time 14 day",0 mg/dL
same,GLC,"[…], time 14 day",185.8 mg/dL
same,IP,"[…], time 14 day",6.9 mg/dL
same,K,"[…], time 14 day",4.4 meq/L
same,LDH,"[…], time 14 day",119.2 IU/L
same,Na,"[…], time 14 day",141.4 meq/L
same,PL,"[…], time 14 day",138 mg/dL
same,RALB,"[…], time 14 day",3.1 g/dL
same,TBIL,"[…], time 14 day",0.01 mg/dL
same,TC,"[…], time 14 day",67.8 mg/dL
same,TG,"[…], time 14 day",96.8 mg/dL
same,TP,"[…], time 14 day",5.8 g/dL
same,gamma-GTP,"[…], time 14 day",3.2 IU/L
same,ALP,"[…], time 28 day",967 IU/L
same,ALT,"[…], time 28 day",31.8 IU/L
same,AST,"[…], time 28 day",64.2 IU/L
same,BUN,"[…], time 28 day",18.2 mg/dL
same,CRE,"[…], time 28 day",0.2 mg/dL
same,Ca,"[…], time 28 day",10.4 mg/dL
same,Cl,"[…], time 28 day",105.4 meq/L
same,DBIL,"[…], time 28 day",0 mg/dL
same,GLC,"[…], time 28 day",188.6 mg/dL
same,IP,"[…], time 28 day",5.9 mg/dL
same,K,"[…], time 28 day",4.3 meq/L
same,LDH,"[…], time 28 day",181.6 IU/L
same,Na,"[…], time 28 day",142.6 meq/L
same,PL,"[…], time 28 day",134.8 mg/dL
same,RALB,"[…], time 28 day",3.1 g/dL
same,TBIL,"[…], time 28 day",0.004 mg/dL
same,TC,"[…], time 28 day",64 mg/dL
same,TG,"[…], time 28 day",131 mg/dL
same,TP,"[…], time 28 day",6.1 g/dL
same,gamma-GTP,"[…], time 28 day",1 IU/L
